# Assay results: US20260306463A1, “SIK INHIBITORS TO TREAT CHRONIC KIDNEY DISEASE” (The General Hospital Corporation, priority 2023, published 2026)
# Entries after “also recorded” stand apart in the source; their conditions may differ.
# System: mice with adenine-induced chronic kidney disease
# Assay: adenine diet-induced CKD in mice, 6 weeks: body weight, renal function, mineral metabolism, histology
# Assay type: in vivo, mouse (female CD1)
# Protocol: FIGS. 1A-1E. […] (A) Study design: Female CD1 mice (n=8/group) were treated with control or 0.2% adenine diet starting at 6 weeks of age along with vehicle or SK-124 (40 mg/kg) treatment by oral gavage once daily. Bottom: body weight of mice in the indicated treatment groups. […] (B, C) After 6 weeks of treatment, the indicated analytes were measured in fasting serum or urine. […] (D) H+E-stained kidney sections were assessed on a blinded basis by a pathologist for tubulointerstitial damage. (E) Whole kidney RNA from the indicated groups was analyzed by RT-qPCR for the indicated proximal tubule marker gene. For all panels in all figures, 1-way ANOVA was performed with Dunnett's posthoc analysis to analyze differences between treatment groups, p values less than 0.05 are shown in graph.
# 7-week-old female CD1 mice were obtained from Charles River Laboratories (Wilmington, MA) and were fed on 0.2% adenine containing diet (TD.130900; 0.2% Adenine, 0.9% Phosphate, 0.5% Calcium; Envigo) or control diet (TD. 96348) for 6 or 8 weeks to induce chronic kidney disease (CKD). Mice were oral gavaged with 40 mg/kg SK-124, or intraperitonially injected with 80 μg/kg PTH, or treated with vehicle 5 days a week for the duration of the special diet.
# For studies with Ubiquitin-Cre^ERt2; Sik2^ff; Sik3^ff mice (JAX #007001 for Ubiquitin-Cre^ERt2: RRID:MGL:5905012 for Sik2 foxed mice; and Sik3^tmla(EUCOMM)Hmgu mice (RRID:MGI:5085429) bred to PGK1 FLPo mice (JAX #011065) in order to generate Sik3 foxed mice), tamoxifen was injected (1 mg, IP, Q48 hours, 3 injections total) in all animals including Cre-negative control littermates housed in cages with Pure-o′Cel bedding at 5 weeks of age. Mice were then fed on 0.2% adenine diet from 6 weeks to 9 weeks of age. Mice were fasted for 6 hours and treated with SK-124 and PTH 4 hours and 2 hours before the sacrifice. Blood and spot urine samples were collected by cheek pouch bleeding and by pipetting urine collected on hydrophobic sand (Labsand; Braintree, MA). Kidneys were immediately snap-frozen in liquid nitrogen for TRIzol (Life Technologies)-Chloroform (Fischer Scientific) based RNA isolation or protein isolation, or fixed in 10% formalin at 4C for 24 hrs for histology. All serum and urine measurements were performed using commercial bioassay detection reagents listed in Table 1, following the manufacturers' instructions. Urine protein levels were measured by Bradford assay and normalized to urine creatinine.
# [1] = 0.2% adenine diet, 6 weeks, SK-124 40 mg/kg oral
smiles,measurement,setting,value
"CCc1nnc(-c2c(OC)cc(-c3cnc4cc(-c5cnn(C)c5)ccn34)cc2OC)o1 [SK-124, 2-[2,6-Dimethoxy-4-[7-(1-methylpyrazol-4-yl)imidazo[1,2-a]pyridin-3-yl]phenyl]-5-ethyl-1,3,4-oxadiazole]",BUN,[1],reduced
same,creatinine,[1],reduced
same,cystatin C,[1],reduced
same,hyperphosphatemia,[1],improved
same,increased FGF-23,[1],improved
same,proteinuria,[1],reduced
same,secondary hyperparathyroidism,[1],improved
same,body weight,"0.2% adenine diet, 6 weeks, SK-124 40 mg/kg oral gavage once daily, 40 mg/kg",CKD-induced weight loss is prevented; also recorded: improved body weight
same,renal (kidney) function and overall health,"0.2% adenine diet, 6 weeks, SK-124 40 mg/kg oral, 40 mg/kg",improves renal function; also recorded: dramatic improvements in renal function and overall health; also recorded: restores kidney function
same,tubule-interstitial damage,"H+E-stained kidney sections, blinded pathologist",reduced tubule-interstitial damage
same,CKD-induced changes of analytes in fasting serum or urine,"after 6 weeks of treatment, SK-124 40 mg/kg oral",All CKD-induced changes were prevented
